In brackets after ≈: the same amount, converted by molar mass. Activity calls are given as the source filed them. The calls are words filed in the database; no cut-off is given here.
Tests used:
Pimelobacter simplex [1] = experiment: Antimicrobial activity against Nocardioides simplex DSM 20130 by serial dilution method; format: functional
Nocardia sp. [2] = experiment: Antimicrobial activity against Nocardia sp. DSM 43069 by serial dilution method; format: functional
[3] = tested on: Schizosaccharomyces pombe; experiment: Antimicrobial activity against Schizosaccharomyces pombe DSM 70572 by serial dilution method; format: functional
Rhodotorula glutinis [4] = experiment: Antimicrobial activity against Rhodotorula glutinis DSM 10134 by serial dilution method; format: functional
Trichosporon oleaginosus [5] = experiment: Antimicrobial activity against Trichosporon oleaginosus DSM 11815 by serial dilution method; format: functional; details: Cutaneotrichosporon oleaginosum
Mucor hiemalis [6] = experiment: Antimicrobial activity against Mucor hiemalis DSM 2656 by serial dilution method; format: functional
Aspergillus clavatus [7] = experiment: Antimicrobial activity against Aspergillus clavatus DSM 816 by serial dilution method; format: functional
Debaryomyces hansenii [8] = experiment: Antimicrobial activity against Debaryomyces hansenii DSM 3428 by serial dilution method; format: functional
Staphylococcus aureus [9] = experiment: Antimicrobial activity against Staphylococcus aureus DSM 346 at 6.7 to 67 ug/ml by serial dilution method; format: functional, organism-based
[10] = tested on: Mycolicibacterium diernhoferi; experiment: Antimicrobial activity against Mycobacterium diernhoferi DSM 43524 at 6.7 to 67 ug/ml by serial dilution method; format: functional, organism-based
Micrococcus luteus [11] = experiment: Antimicrobial activity against Micrococcus luteus DSM 20030 at 6.7 to 67 ug/ml by serial dilution method; format: functional, organism-based
Paenibacillus polymyxa [12] = experiment: Antimicrobial activity against Paenibacillus polymyxa DSM 36 at 6.7 to 67 ug/ml by serial dilution method; format: functional
Pseudomonas aeruginosa [13] = experiment: Antimicrobial activity against Pseudomonas aeruginosa DSM 50071 at 6.7 to 67 ug/ml by serial dilution method; format: functional, organism-based
[14] = tested on: Chromobacterium violaceum; experiment: Antimicrobial activity against Chromobacterium violaceum DSM 30191 at 6.7 to 67 ug/ml by serial dilution method; format: functional, organism-based
Escherichia coli [15] = experiment: Antimicrobial activity against Escherichia coli DSM 1116 at 6.7 to 67 ug/ml by serial dilution method; format: functional, organism-based
Candida albicans [16] = experiment: Antimicrobial activity against Candida albicans DSM 1665 at 6.7 to 67 ug/ml by serial dilution method; format: functional, organism-based
Wickerhamomyces anomalus [17] = experiment: Antimicrobial activity against Pichia anomala DSM 6766 at 6.7 to 67 ug/ml by serial dilution method; format: functional, organism-based
Eremothecium coryli [18] = experiment: Antimicrobial activity against Nematospora coryli DSM 6981 at 6.7 to 67 ug/ml by serial dilution method; format: functional, organism-based
Saccharomyces cerevisiae [19] = experiment: Antimicrobial activity against Saccharomyces cerevisiae BTc-3A at 6.7 to 67 ug/ml by serial dilution method; format: functional, organism-based
Pichia membranifaciens [20] = experiment: Antimicrobial activity against Pichia membranifaciens DSM 21959 at 6.7 to 67 ug/ml by serial dilution method; format: functional, organism-based
Amorphotheca resinae [21] = experiment: Antimicrobial activity against Hormoconis resinae DSM 1203 at 6.7 to 67 ug/ml by serial dilution method; format: functional, organism-based
Penicillium capsulatum [22] = experiment: Antimicrobial activity against Penicillium capsulatum DSM 2210 at 6.7 to 67 ug/ml by serial dilution method; format: functional
[23] = Cytotoxicity against mouse L929 cells after 5 days; format: cell-based; details: read-out: LC50
Bacillus subtilis [24] = experiment: Antimicrobial activity against Bacillus subtilis DSM 10 at 6.7 to 67 ug/ml by serial dilution method; format: functional, organism-based
[25] = tested on: Schizosaccharomyces pombe; experiment: Antimicrobial activity against Schizosaccharomyces pombe DSM 70572 at 6.7 to 67 ug/ml by serial dilution method; format: functional, organism-based
Rhodotorula glutinis [26] = experiment: Antimicrobial activity against Rhodotorula glutinis DSM 10134 at 6.7 to 67 ug/ml by serial dilution method; format: functional, organism-based
Mucor hiemalis [27] = experiment: Antimicrobial activity against Mucor hiemalis DSM 2656 at 6.7 to 67 ug/ml by serial dilution method; format: functional, organism-based
Bacillus subtilis [28] = experiment: Antimicrobial activity against Bacillus subtilis DSM 10 by serial dilution method; format: functional
Staphylococcus aureus [29] = experiment: Antimicrobial activity against Staphylococcus aureus DSM 346 by serial dilution method; format: functional
[30] = tested on: Chromobacterium violaceum; experiment: Antimicrobial activity against Chromobacterium violaceum DSM 30191 by serial dilution method; format: functional
Candida albicans [31] = experiment: Antimicrobial activity against Candida albicans DSM 1665 by serial dilution method; format: functional
Wickerhamomyces anomalus [32] = experiment: Antimicrobial activity against Pichia anomala DSM 6766 by serial dilution method; format: functional, organism-based
Eremothecium coryli [33] = experiment: Antimicrobial activity against Nematospora coryli DSM 6981 by serial dilution method; format: functional
Saccharomyces cerevisiae [34] = experiment: Antimicrobial activity against Saccharomyces cerevisiae BTc-3A by serial dilution method; format: functional, organism-based
Pichia membranifaciens [35] = experiment: Antimicrobial activity against Pichia membranifaciens DSM 21959 by serial dilution method; format: functional, organism-based
Amorphotheca resinae [36] = experiment: Antimicrobial activity against Hormoconis resinae DSM 1203 by serial dilution method; format: functional, organism-based
Penicillium capsulatum [37] = experiment: Antimicrobial activity against Penicillium capsulatum DSM 2210 by serial dilution method; format: functional
Pimelobacter simplex [38] = experiment: Antimicrobial activity against Nocardioides simplex DSM 20130 at 6.7 to 67 ug/ml by serial dilution method; format: functional
Nocardia sp. [39] = experiment: Antimicrobial activity against Nocardia sp. DSM 43069 at 6.7 to 67 ug/ml by serial dilution method; format: functional, organism-based
Trichosporon oleaginosus [40] = experiment: Antimicrobial activity against Trichosporon oleaginosus DSM 11815 at 6.7 to 67 ug/ml by serial dilution method; format: functional; details: Cutaneotrichosporon oleaginosum
Aspergillus clavatus [41] = experiment: Antimicrobial activity against Aspergillus clavatus DSM 816 at 6.7 to 67 ug/ml by serial dilution method; format: functional, organism-based
Debaryomyces hansenii [42] = experiment: Antimicrobial activity against Debaryomyces hansenii DSM 3428 at 6.7 to 67 ug/ml by serial dilution method; format: functional, organism-based
[43] = tested on: Mycolicibacterium diernhoferi; experiment: Antimicrobial activity against Mycobacterium diernhoferi DSM 43524 by serial dilution method; format: functional
Micrococcus luteus [44] = experiment: Antimicrobial activity against Micrococcus luteus DSM 20030 by serial dilution method; format: functional
Paenibacillus polymyxa [45] = experiment: Antimicrobial activity against Paenibacillus polymyxa DSM 36 by serial dilution method; format: functional
Escherichia coli [46] = experiment: Antimicrobial activity against Escherichia coli DSM 1116 by serial dilution method; format: functional
Pseudomonas aeruginosa [47] = experiment: Antimicrobial activity against Pseudomonas aeruginosa DSM 50071 by serial dilution method; format: functional, organism-based

Compound | MIC (Pimelobacter simplex [1]) [µg/mL] | MIC (Rhodotorula glutinis [4]) [µg/mL] | MIC (Trichosporon oleaginosus [5]) [µg/mL] | MIC (Mucor hiemalis [6]) [µg/mL] | MIC (Aspergillus clavatus [7]) [µg/mL] | inhibition (Staphylococcus aureus [9]) | inhibition [10] | inhibition (Micrococcus luteus [11]) | inhibition (Paenibacillus polymyxa [12]) | inhibition (Pseudomonas aeruginosa [13]) | inhibition [14] | inhibition (Escherichia coli [15]) | inhibition (Candida albicans [16]) | inhibition (Wickerhamomyces anomalus [17]) | inhibition (Saccharomyces cerevisiae [19]) | inhibition (Pichia membranifaciens [20]) | inhibition (Amorphotheca resinae [21]) | inhibition (Penicillium capsulatum [22]) | CC50 at 120 h [23] [µg/mL] | inhibition [25] | also measured
C=C(C)/C=C/c1ccc2[nH]cc(C/C=N\O)c2c1 | 33.3 (≈ 139 µM) | 67 (≈ 279 µM) | 67 (≈ 279 µM) | 67 (≈ 279 µM) | 67 (≈ 279 µM) | inactive | inactive | inactive | inactive | inactive | inactive | inactive | inactive | inactive | inactive | inactive | inactive | inactive | 6.8 (≈ 28.3 µM) |  | MIC (Nocardia sp. [2]): 33.3 µg/mL (≈ 139 µM); MIC [3]: 67 µg/mL (≈ 279 µM); MIC (Debaryomyces hansenii [8]): 67 µg/mL (≈ 279 µM); inhibition (Eremothecium coryli [18]): inactive
C=C(C)/C=C/c1ccc2[nH]cc(C/C=N/O)c2c1 | 33.3 (≈ 139 µM) | 67 (≈ 279 µM) | 67 (≈ 279 µM) | 67 (≈ 279 µM) | 67 (≈ 279 µM) | inactive | inactive | inactive | inactive | inactive | inactive | inactive | inactive | inactive | inactive | inactive | inactive | inactive | 6.8 (≈ 28.3 µM) |  | MIC (Nocardia sp. [2]): 33.3 µg/mL (≈ 139 µM); MIC [3]: 67 µg/mL (≈ 279 µM); MIC (Debaryomyces hansenii [8]): 67 µg/mL (≈ 279 µM); inhibition (Eremothecium coryli [18]): inactive
CC(=O)/C=C/c1ccc2[nH]cc(CCO)c2c1 |  |  |  |  |  | inactive |  | inactive |  | inactive | inactive | inactive | inactive | inactive |  |  |  |  |  | inactive | inhibition (Bacillus subtilis [24]): inactive; inhibition (Rhodotorula glutinis [26]): inactive; inhibition (Mucor hiemalis [27]): inactive
CC1=C(CCO)C(=O)c2ccccc2C1=O |  | 67 (≈ 310 µM) |  | 67 (≈ 310 µM) |  |  |  | inactive |  |  |  | inactive |  | inactive |  |  |  |  |  | inactive | MIC (Bacillus subtilis [28]): 33.3 µg/mL (≈ 154 µM); MIC (Staphylococcus aureus [29]): 33.3 µg/mL (≈ 154 µM); MIC [30]: 67 µg/mL (≈ 310 µM); MIC (Candida albicans [31]): 67 µg/mL (≈ 310 µM)
NYSTATIN |  | 0.52 | 1 | 2.1 | 2.1 |  |  |  |  |  |  |  |  |  |  |  |  |  |  |  | MIC [3]: 33.3 µg/mL; MIC (Candida albicans [31]): 4.2 µg/mL; MIC (Wickerhamomyces anomalus [32]): 4.2 µg/mL; MIC (Eremothecium coryli [33]): 4.2 µg/mL; MIC (Saccharomyces cerevisiae [34]): 1.7 µg/mL; MIC (Pichia membranifaciens [35]): 0.83 µg/mL; MIC (Amorphotheca resinae [36]): < 0.25 µg/mL; MIC (Penicillium capsulatum [37]): 16.6 µg/mL; MIC (Debaryomyces hansenii [8]): 6.7 µg/mL
C=C(C)/C=C/c1ccc2[nH]cc(CCO)c2c1 |  |  |  |  |  | inactive | inactive | inactive | inactive | inactive | inactive | inactive | inactive | inactive | inactive | inactive | inactive | inactive | > 10 | inactive | inhibition (Pimelobacter simplex [38]): inactive; inhibition (Nocardia sp. [39]): inactive; inhibition (Rhodotorula glutinis [26]): inactive; inhibition (Eremothecium coryli [18]): inactive; inhibition (Trichosporon oleaginosus [40]): inactive; inhibition (Mucor hiemalis [27]): inactive; inhibition (Aspergillus clavatus [41]): inactive; inhibition (Debaryomyces hansenii [42]): inactive
O=C(c1nccs1)c1c[nH]c2ccccc12 |  | 67 (≈ 294 µM) | 67 (≈ 294 µM) | 33.3 (≈ 146 µM) | 33.3 (≈ 146 µM) | inactive | inactive | inactive | inactive | inactive | inactive | inactive | inactive | inactive | inactive | inactive | inactive | inactive | > 10 | inactive | MIC (Eremothecium coryli [33]): 33.3 µg/mL (≈ 146 µM); inhibition (Pimelobacter simplex [38]): inactive; inhibition (Nocardia sp. [39]): inactive; inhibition (Debaryomyces hansenii [42]): inactive
CN(C)[C@@H]1C(O)=C(C(N)=O)C(=O)[C@@]2(O)C(O)=C3C(=O)c4c(O)cccc4[C@@](C)(O)[C@H]3[C@H](O)[C@@H]12.Cl [OXYTETRACYCLINE HYDROCHLORIDE] | 16.6 |  |  |  |  |  |  |  |  |  |  |  |  |  |  |  |  |  |  |  | MIC (Bacillus subtilis [28]): 8.3 µg/mL; MIC (Nocardia sp. [2]): 8.3 µg/mL; MIC (Staphylococcus aureus [29]): 0.21 µg/mL; MIC [43]: < 0.25 µg/mL; MIC (Micrococcus luteus [44]): 3.3 µg/mL; MIC (Paenibacillus polymyxa [45]): 8.3 µg/mL; MIC [30]: 1 µg/mL; MIC (Escherichia coli [46]): 1 µg/mL
GENTAMICIN |  |  |  |  |  |  |  |  |  |  |  |  |  |  |  |  |  |  |  |  | MIC (Pseudomonas aeruginosa [47]): 67 µg/mL

Source: ChEMBL document CHEMBL3259789, “Indothiazinone, an indolyl thiazolyl ketone from a novel myxobacterium belonging to the Sorangiineae” (J Nat Prod, 2014)
